Laboratory results published in patent EP0578726B1, “VIRUS INACTIVATION METHOD” (VEGATEC, priority 1991, dated 1992).

Assays:
[1] = system: C 1 estérase; assay: Example VIII: inhibitory capacity of treated C 1 Inactivateur towards C 1 estérase; format: biochemical; conditions: 6 h - 24°C, (III) at 6,5 g/l, % of inhibitory activity of purified C 1 Inactivateur without additive at To
Procedure: La protéine a donc été traitée d'une part avec le procédé solvant-détergent, d'autre part avec (III) à une concentration finale de 6,5 g/l pendant 6 h à 24°C, dans le but d'obtenir l'inactivation des virus éventuellement présents dans la matière première.
Le tableau H montre l'influence du traitment d'inactivation virale sur les propriétés inhibitrices du C 1 Ina essayé sur trois enzymes : C 1 estérase, kallicréine, plasmine.
Le témoin est incubé 6 h à 24°C mais ne contient aucun additif inactivant.
L'activité inhibitrice est exprimée en % de l'activité inhibitrice du C 1 Inactivateur purifié sans additif et dosé à To.

[2] = system: Herpès simplex virus II (HSVII); assay: Example I: inactivation of HSVII suspensions, detection in cell culture; format: cell-based; conditions: 6,5 g/l of (III)
Procedure: Herpès simplex virus II (HSVII) est entretenu en culture cellulaire et les suspensions virales obtenues ont une dose infectieuse 50% (DI50) à une dilution de 10⁻⁶.
Les suspensions virales sont mises en contact avec 6,5g/l de (III) pendant 1h, 2h, 4h à 30°C.
Des témoins positifs sont réalisés dans les mêmes conditions d'incubation sans addition de (III).
L'effet virucide de (III) est arrêté par dilution au 1/100e avec du milieu de culture sans virus. La concentration virale atteint alors 10⁴DI50 pour l'effet de dilution.

[3] = system: Herpès Simplex Virus II (HSV II); assay: Example II: kinetics of HSV II inactivation, titration on receptor cells; format: cell-based; conditions: after 15 minutes of contact, (III) 5 g/l final concentration
Procedure: Herpès Simplex Virus II (HSV II) de l'exemple 1 est incubé avec une solution de (III) à 5 g/l en concentration finale dans son milieu de culture.
Des prélèvements sont effectués à intervalles de temps 5, 10, 15, 30 et 60 minutes, puis titrés pour leur contenu en virus infectieux sur cellules réceptrices en culture.

CCCCCCCNC(=O)OC[C@H]1O[C@H](OC)[C@H](O)[C@@H](O)[C@@H]1O [(III), 6-O-(N-heptylcarbamoyl)méthyl-α-D-glucopyranoside]
Activité anti C 1 estérase ([1]; essai n° 1): 96,2% | Activité anti C 1 estérase ([1]; essai n° 2): 100% | inactivation de HSVII ([2]; 30°C, control titre 10⁴DI50): ≥ 4 log | activité virale de HSVII ([2]; contact 1h, 2h, 4h at 30°C, stopped by 1/100 dilution): Aucune activité virale de HSVII n'est détectée | activité virale de HSVII [3]: Aucune activité virale de HSVII n'est détectée
